Patent publication US10039845B2, “Labeled inhibitors of prostate specific membrane antigen (PSMA) biological evaluation, and use of imaging agents” (THE JOHNS HOPKINS UNIVERSITY, priority 2007, dated 2018)

Tests used:
LNCaP (PSMA+) tumor = assay: In vivo binding specificity (blocking) study, SPECT-CT; design: species or system mice; settings: LNCaP tumor bearing animal, PMPA 50 mg/kg (1 mg), images 30-60 min postinjection
Protocol: SPECT-CT imaging was then performed as described above, with both animals on the scanner gantry.

PSMA = molecular target: T1, PSMA (Homo sapiens, UniProt Q04609); assay: NAALADase assay (NAAG hydrolysis, LNCaP cell extracts); format: biochemical
T1 construct: LNCaP cell extracts were prepared by sonication in NAALADase buffer; endogenous in cells; host or cells: LNCaP cell extract (sonicated in 50 mM Tris pH 7.4, 0.5% Triton X-100)
Protocol: The relative binding affinities of L1-L7 and ReL1-ReL7, were determined using the N-acetylated-α-linked acidic dipeptidase (NAALADase) assay as previously described.
NAAG hydrolysis was performed essentially as described previously (Robinson, M. B.; et al. J Biol Chem 1987, 262, 14498-14506; Lupold, S. E.; et al. Cancer Res 2002, 62, 4029-4033.). In short, LNCaP cell extracts were prepared by sonication in NAALADase buffer [50 mM Tris (pH 7.4) and 0.5% Triton X-100]. Cell lysates were incubated with or without inhibitor at 37° C. for 10 minutes. Following the incubation the radiolabeled substrate N-acetyl-L-aspartyl-L-(3,4-^3H)glutamate (NEN Life Science Products, Boston, Mass.) was added to a final concentration of 30 nM at 37° C. for 10-15 min. The reaction was stopped by the addition of an equal volume of ice-cold 100 mM sodium phosphate and 2 mM EDTA. Products were partitioned by AG 1-X8 formate resin (Bio-Rad Laboratories) anion exchange chromatography, eluted with 1 M sodium formate, and quantified by liquid scintillation counting. […] Assays were performed in triplicate with the entire inhibition study being repeated at least once to confirm affinity and mode of inhibition. Data were collected during linear phase of hydrolysis (i.e., <20% cleavage of total substrate). Enzyme inhibitory constants (Ki values) were generated using the Cheng-Prusoff conversion (Cheng, Y.; Prusoff, W. H. Biochem Pharmcol 1973, 22, 3099-3108).

PSMA+ PC3 PIP cells = assay: In vitro fluorescence microscopy in PC3 PIP and PC3 flu cells; format: cell-based, human; settings: excitation 494 nm, emission 628 nm, 1 h incubation
Protocol: Coordination of the bisquinoline moiety of L2 with Re(CO)3 renders this complex fluorescent. Accordingly, microscopy was performed using ReL2 in live cells (FIG. 2). […] The mechanism of internalization of PSMA has been studied previously, however only antibodies and antibody conjugates have been used, rather than small molecules (Rajasekaran, S. A.; et al. Mol Biol Cell 2003, 14, 4835-4845; Moffatt, S.; et al. Gene Ther 2006, 13, 761-772).
Following fresh preparation of ReL2, 10,000 PC3 PIP and PC3 flu cells were seeded separately into each of four wells of a Lab-Tek II 8-well chamber slide (Fisher Scientific). The cells were cultured as described above and were allowed to attach to the bottom of the wells overnight at 37° C. in 5% CO2 in air. […] The cells were then returned to the incubator for one hour to enable binding. Each well was then carefully washed by removing the supernatant followed by addition of warm culture media for 30 seconds. The wash media was then removed and added to the contents of the well chambers. Dako Cytomation mounting medium was then applied and a glass coverslip was added. The mounting medium was allowed to dry at ambient temperature for 20 min prior to storage of the slide at 4° C. overnight. The cells were then viewed using an Olympus BX61 fluorescence microscope equipped with a Semrock DAPI/FITC/Texas Red triple filter cube.

T1 sequence (Q04609 whole entry): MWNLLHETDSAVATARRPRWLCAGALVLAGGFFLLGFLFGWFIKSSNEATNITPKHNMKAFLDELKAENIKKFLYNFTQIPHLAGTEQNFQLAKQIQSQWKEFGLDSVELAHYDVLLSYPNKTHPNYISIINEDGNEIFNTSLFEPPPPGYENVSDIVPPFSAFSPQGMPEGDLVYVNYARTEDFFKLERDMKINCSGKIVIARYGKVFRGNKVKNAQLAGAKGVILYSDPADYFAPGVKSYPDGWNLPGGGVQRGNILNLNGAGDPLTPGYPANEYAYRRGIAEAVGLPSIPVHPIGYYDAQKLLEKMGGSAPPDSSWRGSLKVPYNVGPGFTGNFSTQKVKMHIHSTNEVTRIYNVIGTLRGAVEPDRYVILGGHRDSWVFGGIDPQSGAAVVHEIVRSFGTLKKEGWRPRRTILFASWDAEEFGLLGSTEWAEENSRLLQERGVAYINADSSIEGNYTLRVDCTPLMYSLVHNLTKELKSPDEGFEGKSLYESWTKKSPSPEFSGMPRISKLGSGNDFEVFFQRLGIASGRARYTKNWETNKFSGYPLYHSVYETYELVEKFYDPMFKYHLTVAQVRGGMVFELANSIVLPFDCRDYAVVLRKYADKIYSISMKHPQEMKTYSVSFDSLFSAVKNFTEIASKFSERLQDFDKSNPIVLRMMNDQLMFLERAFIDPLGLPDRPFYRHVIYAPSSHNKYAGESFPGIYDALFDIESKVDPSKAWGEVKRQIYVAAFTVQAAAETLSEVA

O=C(O)CCC(CP(=O)(O)O)C(=O)O (stereo not shown) [PMPA, 2-(phosphonomethyl)pentanedioic acid]
blockade of [^99mTc]L1 binding to tumor and renal cortex (LNCaP (PSMA+) tumor): capable of eliminating binding of [^99mTc]L1

O=C(O)CCC(NC(=O)NC(CCCCNC(=O)CCCCCCC(=O)NC(CCCCN(Cc1ccc2ccccc2n1)Cc1ccc2ccccc2n1)C(=O)O)C(=O)O)C(=O)O.[Br-].[C-]#[O+].[C-]#[O+].[C-]#[O+].[Re+] (stereo not drawn) [ReL2, Tricarbonyl(2-[3-(5-{7-[5-(bis-quinolin-2-ylmethyl-amino)-1-carboxy-pentylcarbamoyl]-heptanoylamino}-1-carboxy-pentyl)-ureido]-pentanedioic acid) rhenium bromide]
Ki (PSMA; LNCaP cell extracts, Cheng-Prusoff conversion, read-out: Ki (PSMA inhibitory activity)): 0.5 nM | fold higher PSMA inhibitory activity than ReL1 (PSMA; relative to ReL1): 20 fold | fluorescent signal in live cells (internalization) (PSMA+ PC3 PIP cells): weak but observable fluorescent signal from within the PSMA+ PC3 PIP cells
